Experimental data as given in patent US10385024B2, “Compounds and methods for inhibiting NHE-mediated antiport in the treatment of disorders associated with fluid retention or salt overload and gastrointestinal tract disorders” (Ardelyx, Inc., priority 2012, dated 2019).

Tests used:
human NHE-3 = target: T1, human NHE-3 (Homo sapiens, UniProt P48764); assay: Cell-based assay of NHE-3 activity (human NHE3 inhibition assay); settings: OK cells with human NHE-3 gene, BCECF pH dye, 0-30 μM test compound; for IC50: read-out: Human NHE3 pIC50 (converted)
T1 construct: expressed in transfected cells; host or cells: Opossum kidney (OK) cells (ATCC), transfected by electroporation
T1 sequence (P48764 26-834): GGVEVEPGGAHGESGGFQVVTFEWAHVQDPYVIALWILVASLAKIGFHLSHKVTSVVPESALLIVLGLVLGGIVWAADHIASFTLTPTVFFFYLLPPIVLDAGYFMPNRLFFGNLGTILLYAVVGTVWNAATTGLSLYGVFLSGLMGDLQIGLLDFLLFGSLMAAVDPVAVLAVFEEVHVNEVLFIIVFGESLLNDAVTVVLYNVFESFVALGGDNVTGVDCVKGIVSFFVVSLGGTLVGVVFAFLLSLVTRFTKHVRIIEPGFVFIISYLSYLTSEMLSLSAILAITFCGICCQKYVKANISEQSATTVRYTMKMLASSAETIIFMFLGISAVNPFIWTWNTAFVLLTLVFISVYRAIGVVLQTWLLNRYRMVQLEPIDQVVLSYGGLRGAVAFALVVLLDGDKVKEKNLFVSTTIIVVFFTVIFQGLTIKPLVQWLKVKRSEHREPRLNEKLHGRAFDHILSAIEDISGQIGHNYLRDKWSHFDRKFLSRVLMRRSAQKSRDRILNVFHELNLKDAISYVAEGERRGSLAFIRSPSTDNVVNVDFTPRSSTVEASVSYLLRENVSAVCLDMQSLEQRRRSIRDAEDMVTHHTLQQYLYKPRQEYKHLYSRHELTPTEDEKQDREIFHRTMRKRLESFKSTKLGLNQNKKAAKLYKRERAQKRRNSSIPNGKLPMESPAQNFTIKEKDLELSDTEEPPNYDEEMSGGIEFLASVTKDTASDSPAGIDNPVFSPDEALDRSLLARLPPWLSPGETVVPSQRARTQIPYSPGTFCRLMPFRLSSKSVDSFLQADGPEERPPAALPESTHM
In short: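 Opossum kidney cells electroporated with rat or human NHE-3, loaded with 5 μM BCECF-AM in NH4Cl-HEPES pH 7.4 for 30 min at RT, then acidified 10 min in Na+-free choline HEPES. Na+-dependent pH recovery rates from BCECF fluorescence, averaged over ≥2 replicates, gave pIC50.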

Plasma PK = format: in vivo, Sprague-Dawley rats; settings: Sprague-Dawley; rat plasma, oral gavage, nominal dose 30 mg/kg, mean of n=3, sampling 0.5-4 h
Method: Sprague-Dawley rats (n=3) were dosed with test compounds by oral gavage. Blood was collected at 0.5, 1, 2 and 4 h via retro-orbital bleeds and processed to plasma using K2EDTA as an anticoagulant. Plasma samples were treated with acetonitrile containing an internal standard and precipitated proteins were removed by centrifugation. Supernatants were analyzed by LC-MS/MS and compound concentrations were determined by interpolation from a calibration curve prepared in plasma. Accurate recovery of quality control samples were confirmed to accept each analytical run.

[1] = Pharmacokinetic evaluation in bile; format: in vivo, Sprague-Dawley rats; settings: bile duct cannulated rats, oral gavage, nominal dose 30 mg/kg, bile collected over 24 h, mean of n=3
Method: Bile duct cannulated (BDC) Sprague-Dawley rats were dosed with test compounds by oral gavage and a single aliquot of bile was collected via cannula over the 24 h following dosing. Bile samples were treated with acetonitrile and precipitated proteins were removed by centrifugation. Some compounds required liquid-liquid extraction using MTBE. After centrifugation, samples were diluted as appropriate in mobile phase and analyzed by LC-MS/MS. The concentrations of compounds in bile were determined by interpolation from a standard calibration curve prepared in rat bile from untreated BDC rats. Accurate recovery of quality control samples was confirmed to accept each analytical run. Concentration in bile is reported in nM and represents the mean result from n=3 rats.

SMILES | IC50 (human NHE-3) | AUC (Plasma PK) | Cmax (Plasma PK) | Concentration in Bile [1] | Human NHE3 pIC50 (human NHE-3)
CN1Cc2c(Cl)cc(Cl)cc2[C@H](c2cccc(S(=O)(=O)NCCOCCOCCNC(=O)CCC(N)(CCC(=O)NCCOCCOCCNS(=O)(=O)c3cccc([C@@H]4CN(C)Cc5c(Cl)cc(Cl)cc54)c3)CCC(=O)NCCOCCOCCNS(=O)(=O)c3cccc([C@@H]4CN(C)Cc5c(Cl)cc(Cl)cc54)c3)c2)C1 [Example 2, 4-amino-N^1,N^7-bis(2-(2-(2-(3-((S)-6,8-dichloro-2-methyl-1,2,3,4-tetrahydroisoquinolin-4-yl)phenylsulfonamido)ethoxy)ethoxy)ethyl)-4-(3-(2-(2-(2-(3-((S)-6,8-dichloro-2-methyl-1,2,3,4-tetrahydroisoquinolin-4-yl)phenylsulfonamido)ethoxy)ethoxy)ethylamino)-3-oxopropyl)heptanediamide] | < 100 nM | < 12 ng·h/mL | < 4 ng/mL | 4 nM | 
CN1Cc2c(Cl)cc(Cl)cc2[C@H](c2cccc(S(=O)(=O)NCCOCCOCCNC(=O)CCC(CCC(=O)NCCOCCOCCNS(=O)(=O)c3cccc([C@@H]4CN(C)Cc5c(Cl)cc(Cl)cc54)c3)(CCC(=O)NCCOCCOCCNS(=O)(=O)c3cccc([C@@H]4CN(C)Cc5c(Cl)cc(Cl)cc54)c3)NC(=O)NCCN3CCOCC3)c2)C1 [Example 17, N^1,N^7-bis(2-(2-(2-(3-((S)-6,8-dichloro-2-methyl-1,2,3,4-tetrahydroisoquinolin-4-yl)phenylsulfonamido)ethoxy)ethoxy)ethyl)-4-(3-(2-(2-(2-(3-((S)-6,8-dichloro-2-methyl-1,2,3,4-tetrahydroisoquinolin-4-yl)phenylsulfonamido)ethoxy)ethoxy)ethylamino)-3-oxopropyl)-4-(3-(2-morpholinoethyl)ureido)heptanediamide] | < 100 nM |  |  |  | 
CN1Cc2c(Cl)cc(Cl)cc2[C@H](c2cccc(S(=O)(=O)NCCOCCOCCNC(=O)CCC(CCC(=O)NCCOCCOCCNS(=O)(=O)c3cccc([C@@H]4CN(C)Cc5c(Cl)cc(Cl)cc54)c3)(CCC(=O)NCCOCCOCCNS(=O)(=O)c3cccc([C@@H]4CN(C)Cc5c(Cl)cc(Cl)cc54)c3)NC(=O)CCC(=O)O)c2)C1 [Example 40] |  |  |  | 23 nM | C (C NHE3 pIC50 > 7)
CN1Cc2c(Cl)cc(Cl)cc2[C@H](c2cccc(S(=O)(=O)NCCOCCOCCNC(=O)CCC(CCC(=O)NCCOCCOCCNS(=O)(=O)c3cccc([C@@H]4CN(C)Cc5c(Cl)cc(Cl)cc54)c3)(CCC(=O)NCCOCCOCCNS(=O)(=O)c3cccc([C@@H]4CN(C)Cc5c(Cl)cc(Cl)cc54)c3)NC(=O)COCC(=O)O)c2)C1 [Example 6, 1-(3-((S)-6,8-dichloro-2-methyl-1,2,3,4-tetrahydroisoquinolin-4-yl)phenylsulfonamido)-13,13-bis(3-(2-(2-(2-(3-((S)-6,8-dichloro-2-methyl-1,2,3,4-tetrahydroisoquinolin-4-yl)phenylsulfonamido)ethoxy)ethoxy)ethylamino)-3-oxopropyl)-10,15-dioxo-3,6,17-trioxa-9,14-diazanonadecan-19-oic Acid] | < 100 nM |  |  | 21 nM | 
CN(C)CC(=O)NC(CCC(=O)NCCOCCOCCNS(=O)(=O)c1cccc([C@@H]2CN(C)Cc3c(Cl)cc(Cl)cc32)c1)(CCC(=O)NCCOCCOCCNS(=O)(=O)c1cccc([C@@H]2CN(C)Cc3c(Cl)cc(Cl)cc32)c1)CCC(=O)NCCOCCOCCNS(=O)(=O)c1cccc([C@@H]2CN(C)Cc3c(Cl)cc(Cl)cc32)c1 [Example 14, N1,N7-bis(2-(2-(2-(3-((S)-6,8-dichloro-2-methyl-1,2,3,4-tetrahydroisoquinolin-4-yl)phenylsulfonamido)ethoxy)ethoxy)ethyl)-4-(3-(2-(2-(2-(3-((S)-6,8-dichloro-2-methyl-1,2,3,4-tetrahydroisoquinolin-4-yl)phenylsulfonamido)ethoxy)ethoxy)ethylamino)-3-oxopropyl)-4-(2-(dimethylamino)acetamido)heptanediamide] | < 100 nM |  |  | 28 nM | 
CN1Cc2c(Cl)cc(Cl)cc2[C@H](c2cccc(S(=O)(=O)NCCOCCOCCNC(=O)CCC(CCC(=O)NCCOCCOCCNS(=O)(=O)c3cccc([C@@H]4CN(C)Cc5c(Cl)cc(Cl)cc54)c3)(CCC(=O)NCCOCCOCCNS(=O)(=O)c3cccc([C@@H]4CN(C)Cc5c(Cl)cc(Cl)cc54)c3)NC(=O)NC(CO)(CO)CO)c2)C1 [Example 11, N^1,N^7-bis(2-(2-(2-(3-((S)-6,8-dichloro-2-methyl-1,2,3,4-tetrahydroisoquinolin-4-yl)phenylsulfonamido)ethoxy)ethoxy)ethyl)-4-(3-(2-(2-(2-(3-((S)-6,8-dichloro-2-methyl-1,2,3,4-tetrahydroisoquinolin-4-yl)phenylsulfonamido)ethoxy)ethoxy)ethylamino)-3-oxopropyl)-4-(3-(1,3-dihydroxy-2-(hydroxymethyl)propan-2-yl)ureido)heptanediamide] | 100 to 10000 nM |  |  |  | 
CN1Cc2c(Cl)cc(Cl)cc2[C@H](c2cccc(S(=O)(=O)NCCOCCOCCN(C)C(=O)NCCCN(CCCNC(=O)N(C)CCOCCOCCNS(=O)(=O)c3cccc([C@@H]4CN(C)Cc5c(Cl)cc(Cl)cc54)c3)CCCNC(=O)N(C)CCOCCOCCNS(=O)(=O)c3cccc([C@@H]4CN(C)Cc5c(Cl)cc(Cl)cc54)c3)c2)C1 [Example 55] |  |  |  |  | C (C NHE3 pIC50 > 7)
CN1Cc2c(Cl)cc(Cl)cc2[C@H](c2cccc(S(=O)(=O)NCCOCCOCCNC(=O)CCC(CCC(=O)NCCOCCOCCNS(=O)(=O)c3cccc([C@@H]4CN(C)Cc5c(Cl)cc(Cl)cc54)c3)(CCC(=O)NCCOCCOCCNS(=O)(=O)c3cccc([C@@H]4CN(C)Cc5c(Cl)cc(Cl)cc54)c3)NC(=O)CCCC(=O)O)c2)C1 [Example 36] |  |  |  | 17 nM | C (C NHE3 pIC50 > 7)
CN1Cc2c(Cl)cc(Cl)cc2[C@H](c2cccc(S(=O)(=O)NCCOCCOCCNC(=O)NCCCC(N)(CCCNC(=O)NCCOCCOCCNS(=O)(=O)c3cccc([C@@H]4CN(C)Cc5c(Cl)cc(Cl)cc54)c3)CCCNC(=O)NCCOCCOCCNS(=O)(=O)c3cccc([C@@H]4CN(C)Cc5c(Cl)cc(Cl)cc54)c3)c2)C1 [Example 62] |  |  |  | 7 nM | C (C NHE3 pIC50 > 7)
CN1Cc2c(Cl)cc(Cl)cc2[C@H](c2cccc(S(=O)(=O)NCCOCCOCCNC(=O)CCC(CCC(=O)NCCOCCOCCNS(=O)(=O)c3cccc([C@@H]4CN(C)Cc5c(Cl)cc(Cl)cc54)c3)(CCC(=O)NCCOCCOCCNS(=O)(=O)c3cccc([C@@H]4CN(C)Cc5c(Cl)cc(Cl)cc54)c3)NC(=O)NCCS(=O)(=O)O)c2)C1 [Example 3] | < 100 nM |  |  | 10 nM | 
CN1Cc2c(Cl)cc(Cl)cc2[C@H](c2cccc(S(=O)(=O)NCCOCCOCCNC(=O)NCCCN(CCCNC(=O)NCCOCCOCCNS(=O)(=O)c3cccc([C@@H]4CN(C)Cc5c(Cl)cc(Cl)cc54)c3)CCCNC(=O)NCCOCCOCCNS(=O)(=O)c3cccc([C@@H]4CN(C)Cc5c(Cl)cc(Cl)cc54)c3)c2)C1 [Example 43, (S)—N,N′-(15-(1-(3-((S)-6,8-dichloro-2-methyl-1,2,3,4-tetrahydroisoquinolin-4-yl)phenylsulfonamido)-10-oxo-3,6-dioxa-9,11-diazatetradecan-14-yl)-10,20-dioxo-3,6,24,27-tetraoxa-9,11,15,19,21-pentaazanonacosane-1,29-diyl)bis(3-((S)-6,8-dichloro-2-methyl-1,2,3,4-tetrahydroisoquinolin-4-yl)benzenesulfonamide)] | < 100 nM |  |  | 6 nM | 
CN1Cc2c(Cl)cc(Cl)cc2[C@H](c2cccc(S(=O)(=O)NCCOCCOCCNC(=O)NCCCC(CCCNC(=O)NCCOCCOCCNS(=O)(=O)c3cccc([C@@H]4CN(C)Cc5c(Cl)cc(Cl)cc54)c3)(CCCNC(=O)NCCOCCOCCNS(=O)(=O)c3cccc([C@@H]4CN(C)Cc5c(Cl)cc(Cl)cc54)c3)NC(=O)NC[C@H](O)[C@@H](O)[C@H](O)[C@H](O)CO)c2)C1 [Example 65] |  |  |  |  | C (C NHE3 pIC50 > 7)
